Experimental data taken from patent US6358885B1, “Substituted phenylheterocyclic herbicides” (Mississippi State University, priority 1992, dated 2002).

Assays:
[1] = tested on: barnyardgrass; assay: Test E paddy water application plant response rating 0 to 100; format: in vivo, Echinochloa crus-galli; settings: Flood, 0 to 100 scale, approx. 21 days
Text: (§1) Plastic pots were partially filled with silt loam soil. […] At testing, the water level for all plantings was raised to 2 cm above the soil surface. Chemical treatments were formulated in a non-phytotoxic solvent and applied directly to the paddy water. Treated plants and controls were maintained in a greenhouse for approximately 21 days, after which all species were compared to controls and visually evaluated. […] A dash (-) response means no test result.

[2] = tested on: arrowhead; assay: Test D paddy water application plant response rating 0 to 100; format: in vivo, Sagittaria spp.; settings: 0 to 100 scale, approx. 21 days
Text: (§2) Plastic pots were partially filled with silt loam soil. The soil was then saturated with water. […] After planting, water levels were raised to 3 cm above the soil surface and maintained at this level throughout the test. Chemical treatments were formulated in a non-phytotoxic solvent and applied directly to the paddy water. Treated plants and controls were maintained in a greenhouse for approximately 21 days, after which all species were compared to controls and visually evaluated. […] A dash (-) response means no test result.

[3] = tested on: Japonica rice; assay: Test E paddy water application plant response rating 0 to 100; format: in vivo, oryza sativa; settings: Flood, 0 to 100 scale, approx. 21 days
Text: as §1

[4] = tested on: waterchestnut; assay: Test D paddy water application plant response rating 0 to 100; format: in vivo, Eleocharis spp.; settings: 0 to 100 scale, approx. 21 days
Text: as §2

[5] = tested on: duck salad; assay: as above; format: in vivo, Heteranthera limosa; settings: 0 to 100 scale, approx. 21 days
Text: as §2

[6] = tested on: umbrella sedge; assay: as above; format: in vivo, Cyperus difformis; settings: 0 to 100 scale, approx. 21 days
Text: as §2

[7] = tested on: barnyardgrass; assay: as above; format: in vivo, Echinochloa crus-galli; settings: 0 to 100 scale, approx. 21 days
Text: as §2

[8] = tested on: Japonica rice; assay: as above; format: in vivo, Oryza sativa; settings: 0 to 100 scale, approx. 21 days
Text: as §2

COCN1C(=O)COc2cc(F)c(-c3nn4c(c3Cl)CCCC4)cc21 [Compound 55]
Barnyardgrass 2 plant response rating ([1]; Rate 8 g/ha): 15 | Barnyardgrass 3 plant response rating ([1]; Rate 8 g/ha): 20 | Barnyardgrass 2 plant response rating ([1]; Rate 16 g/ha): 70 | Barnyardgrass 3 plant response rating ([1]; Rate 16 g/ha): 40 | Barnyardgrass 2 plant response rating ([1]; Rate 32 g/ha): 80 | Barnyardgrass 3 plant response rating ([1]; Rate 32 g/ha): 50 | Barnyardgrass 2 plant response rating ([1]; Rate 64 g/ha): 100 | Barnyardgrass 3 plant response rating ([1]; Rate 64 g/ha): 75 | Arrowhead plant response rating ([2]; Rate 4 g/ha): 0 | Arrowhead plant response rating ([2]; Rate 8 g/ha): 0 | Arrowhead plant response rating ([2]; Rate 16 g/ha): 20 | Arrowhead plant response rating ([2]; Rate 32 g/ha): 20 | Arrowhead plant response rating ([2]; Rate 64 g/ha): 30 | Japonica 1 plant response rating ([3]; Rate 8 g/ha): 25 | Japonica 2 plant response rating ([3]; Rate 8 g/ha): 15 | Japonica 1 plant response rating ([3]; Rate 16 g/ha): 75 | Japonica 2 plant response rating ([3]; Rate 16 g/ha): 20 | Japonica 1 plant response rating ([3]; Rate 32 g/ha): 85 | Japonica 2 plant response rating ([3]; Rate 32 g/ha): 25 | Japonica 1 plant response rating ([3]; Rate 64 g/ha): 98 | Japonica 2 plant response rating ([3]; Rate 64 g/ha): 35 | Waterchestnut plant response rating ([4]; Rate 4 g/ha): 0 | Waterchestnut plant response rating ([4]; Rate 8 g/ha): 0 | Waterchestnut plant response rating ([4]; Rate 16 g/ha): 10 | Waterchestnut plant response rating ([4]; Rate 32 g/ha): 15 | Waterchestnut plant response rating ([4]; Rate 64 g/ha): 20 | Duck salad plant response rating ([5]; Rate 4 g/ha): 0 | Duck salad plant response rating ([5]; Rate 8 g/ha): 0 | Duck salad plant response rating ([5]; Rate 16 g/ha): 0 | Duck salad plant response rating ([5]; Rate 32 g/ha): 0 | Duck salad plant response rating ([5]; Rate 64 g/ha): 10 | Umbrella sedge plant response rating ([6]; Rate 4 g/ha): 0 | Umbrella sedge plant response rating ([6]; Rate 8 g/ha): 0 | Umbrella sedge plant response rating ([6]; Rate 16 g/ha): 20 | Umbrella sedge plant response rating ([6]; Rate 32 g/ha): 80 | Umbrella sedge plant response rating ([6]; Rate 64 g/ha): 80 | Barnyardgrass 2 plant response rating ([7]; Rate 4 g/ha): 0 | Barnyardgrass 2 plant response rating ([7]; Rate 8 g/ha): 0 | Barnyardgrass 2 plant response rating ([7]; Rate 16 g/ha): 10 | Barnyardgrass 2 plant response rating ([7]; Rate 32 g/ha): 40 | Barnyardgrass 2 plant response rating ([7]; Rate 64 g/ha): 100 | Japonica rice plant response rating ([8]; Rate 4 g/ha): 10 | Japonica rice plant response rating ([8]; Rate 8 g/ha): 10 | Japonica rice plant response rating ([8]; Rate 16 g/ha): 20 | Japonica rice plant response rating ([8]; Rate 32 g/ha): 25 | Japonica rice plant response rating ([8]; Rate 64 g/ha): 25
